Source: ChEMBL document CHEMBL4507311, “Data for DCP probe A-1155463” (2021)

Assays:
[1] = GPCRScan assay: inhibition of GABA/PBR; set-up: species or system Rattus norvegicus; radioligand conc. used [nm] 0.3 – 2.0, parental cells brain tissue
[2] = biological target: AP2-associated protein kinase 1 (Homo sapiens) (UniProt Q2M2I8); conditions: Compound concentration 1000.0 nM
[3] = system: Tyrosine-protein kinase ABL1 (Homo sapiens), P00519 [F317L]; conditions: Compound concentration 1000.0 nM
[4] = system: ALK tyrosine kinase receptor (Homo sapiens), Q9UM73 [L1196M]; conditions: Compound concentration 1000.0 nM
[5] = biological target: BMP-2-inducible protein kinase (Homo sapiens) (UniProt Q9NSY1); conditions: Compound concentration 1000.0 nM
[6] = biological target: Calcium/calmodulin-dependent protein kinase type II subunit beta (Homo sapiens) (UniProt Q13554); conditions: Compound concentration 1000.0 nM
[7] = biological target: Calcium/calmodulin-dependent protein kinase type II subunit delta (Homo sapiens) (UniProt Q13557); conditions: Compound concentration 1000.0 nM
Calcium/calmodulin-dependent protein kinase type II subunit delta (Homo sapiens), sequence (Q13557 whole entry): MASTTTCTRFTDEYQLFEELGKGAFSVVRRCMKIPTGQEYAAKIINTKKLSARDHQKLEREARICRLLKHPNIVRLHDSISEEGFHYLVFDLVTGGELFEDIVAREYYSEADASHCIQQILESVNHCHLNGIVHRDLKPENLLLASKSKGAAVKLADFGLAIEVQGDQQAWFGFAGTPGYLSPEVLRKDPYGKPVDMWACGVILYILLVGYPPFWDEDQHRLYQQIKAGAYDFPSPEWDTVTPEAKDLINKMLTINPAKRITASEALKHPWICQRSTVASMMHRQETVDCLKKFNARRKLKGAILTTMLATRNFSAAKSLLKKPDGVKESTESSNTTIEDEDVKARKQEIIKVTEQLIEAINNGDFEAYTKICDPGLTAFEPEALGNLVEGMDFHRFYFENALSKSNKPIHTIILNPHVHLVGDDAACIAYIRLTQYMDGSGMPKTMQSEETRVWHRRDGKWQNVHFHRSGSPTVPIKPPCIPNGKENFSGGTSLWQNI

[8] = biological target: Cyclin-dependent kinase 7 (Homo sapiens) (UniProt P50613); conditions: Compound concentration 1000.0 nM
[9] = biological target: Dual specificity protein kinase CLK4 (Homo sapiens) (UniProt Q9HAZ1); conditions: Compound concentration 1000.0 nM
[10] = biological target: Casein kinase II subunit alpha (Homo sapiens) (UniProt P68400); conditions: Compound concentration 1000.0 nM
[11] = biological target: Death-associated protein kinase 2 (Homo sapiens) (UniProt Q9UIK4); conditions: Compound concentration 1000.0 nM
[12] = biological target: Tyrosine-protein kinase Fyn (Homo sapiens) (UniProt P06241); conditions: Compound concentration 1000.0 nM
[13] = biological target: Cyclin-G-associated kinase (Homo sapiens) (UniProt O14976); conditions: Compound concentration 1000.0 nM
[14] = biological target: Insulin receptor-related protein (Homo sapiens) (UniProt P14616); conditions: Compound concentration 1000.0 nM
[15] = system: Mast/stem cell growth factor receptor Kit (Homo sapiens), P10721 [A829P]; conditions: Compound concentration 1000.0 nM
[16] = system: Mast/stem cell growth factor receptor Kit (Homo sapiens), P10721 [L576P]; conditions: Compound concentration 1000.0 nM
[17] = biological target: Serine/threonine-protein kinase LATS2 (Homo sapiens) (UniProt Q9NRM7); conditions: Compound concentration 1000.0 nM
[18] = biological target: LIM domain kinase 2 (Homo sapiens) (UniProt P53671); conditions: Compound concentration 1000.0 nM
[19] = biological target: Serine/threonine-protein kinase MARK2 (Homo sapiens) (UniProt Q7KZI7); conditions: Compound concentration 1000.0 nM
[20] = system: Hepatocyte growth factor receptor (Homo sapiens), P08581 [M1250T]; conditions: Compound concentration 1000.0 nM
[21] = biological target: Macrophage-stimulating protein receptor (Homo sapiens) (UniProt Q04912); conditions: Compound concentration 1000.0 nM
[22] = biological target: Myosin light chain kinase, smooth muscle (Homo sapiens) (UniProt Q15746); conditions: Compound concentration 1000.0 nM
[23] = biological target: Myosin light chain kinase family member 4 (Homo sapiens) (UniProt Q86YV6); conditions: Compound concentration 1000.0 nM
[24] = biological target: Serine/threonine-protein kinase Nek11 (Homo sapiens) (UniProt Q8NG66); conditions: Compound concentration 1000.0 nM
[25] = biological target: Mitogen-activated protein kinase kinase kinase 14 (Homo sapiens) (UniProt Q99558); conditions: Compound concentration 1000.0 nM
Mitogen-activated protein kinase kinase kinase 14 (Homo sapiens), sequence (Q99558 whole entry, looked up): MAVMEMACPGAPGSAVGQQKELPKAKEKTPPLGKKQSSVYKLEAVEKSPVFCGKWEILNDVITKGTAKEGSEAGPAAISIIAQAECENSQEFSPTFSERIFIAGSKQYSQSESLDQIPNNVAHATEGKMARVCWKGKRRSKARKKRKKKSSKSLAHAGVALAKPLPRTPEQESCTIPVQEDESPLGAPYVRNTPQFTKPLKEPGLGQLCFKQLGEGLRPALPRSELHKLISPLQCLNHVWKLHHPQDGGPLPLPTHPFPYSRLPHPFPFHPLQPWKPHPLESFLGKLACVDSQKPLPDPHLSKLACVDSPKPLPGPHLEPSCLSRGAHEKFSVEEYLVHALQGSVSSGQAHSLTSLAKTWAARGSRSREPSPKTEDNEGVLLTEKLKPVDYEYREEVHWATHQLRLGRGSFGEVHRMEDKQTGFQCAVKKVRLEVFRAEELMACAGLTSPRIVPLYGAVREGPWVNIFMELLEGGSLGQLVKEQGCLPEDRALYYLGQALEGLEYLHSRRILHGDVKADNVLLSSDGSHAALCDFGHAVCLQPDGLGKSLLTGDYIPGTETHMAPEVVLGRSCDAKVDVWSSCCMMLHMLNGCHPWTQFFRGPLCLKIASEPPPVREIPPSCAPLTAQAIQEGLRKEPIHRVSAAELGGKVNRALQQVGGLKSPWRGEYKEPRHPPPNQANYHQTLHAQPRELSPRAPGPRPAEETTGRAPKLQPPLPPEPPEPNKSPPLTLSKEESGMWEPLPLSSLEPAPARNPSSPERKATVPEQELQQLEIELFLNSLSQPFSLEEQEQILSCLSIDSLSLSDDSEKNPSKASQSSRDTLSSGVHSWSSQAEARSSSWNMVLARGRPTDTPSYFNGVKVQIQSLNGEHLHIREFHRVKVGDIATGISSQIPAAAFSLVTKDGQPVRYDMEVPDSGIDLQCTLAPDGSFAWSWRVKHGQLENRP

[26] = biological target: Mitogen-activated protein kinase 14 (Homo sapiens) (UniProt Q16539); conditions: Compound concentration 1000.0 nM
Mitogen-activated protein kinase 14 (Homo sapiens), sequence (Q16539 whole entry): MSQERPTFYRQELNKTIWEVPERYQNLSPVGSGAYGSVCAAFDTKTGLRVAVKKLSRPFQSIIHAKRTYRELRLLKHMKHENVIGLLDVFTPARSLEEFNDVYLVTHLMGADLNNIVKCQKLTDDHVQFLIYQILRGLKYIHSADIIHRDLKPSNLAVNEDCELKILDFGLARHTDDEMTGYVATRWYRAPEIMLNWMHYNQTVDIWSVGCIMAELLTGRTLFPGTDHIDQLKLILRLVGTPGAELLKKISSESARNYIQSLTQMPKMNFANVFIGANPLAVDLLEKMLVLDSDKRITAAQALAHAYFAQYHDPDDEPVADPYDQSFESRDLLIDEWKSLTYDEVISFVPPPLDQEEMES

[27] = biological target: Serine/threonine-protein kinase PAK 6 (Homo sapiens) (UniProt Q9NQU5); conditions: Compound concentration 1000.0 nM
[28] = biological target: Platelet-derived growth factor receptor alpha (Homo sapiens) (UniProt P16234); conditions: Compound concentration 1000.0 nM
[29] = system: Phosphatidylinositol 4,5-bisphosphate 3-kinase catalytic subunit alpha isoform (Homo sapiens), P42336 [H1047Y]; conditions: Compound concentration 1000.0 nM
[30] = biological target: Protein kinase C eta type (Homo sapiens) (UniProt P24723); conditions: Compound concentration 1000.0 nM
[31] = biological target: Serine/threonine-protein kinase D3 (Homo sapiens) (UniProt O94806); conditions: Compound concentration 1000.0 nM
[32] = biological target: RAF proto-oncogene serine/threonine-protein kinase (Homo sapiens) (UniProt P04049); conditions: Compound concentration 1000.0 nM
RAF proto-oncogene serine/threonine-protein kinase (Homo sapiens), sequence (P04049 whole entry): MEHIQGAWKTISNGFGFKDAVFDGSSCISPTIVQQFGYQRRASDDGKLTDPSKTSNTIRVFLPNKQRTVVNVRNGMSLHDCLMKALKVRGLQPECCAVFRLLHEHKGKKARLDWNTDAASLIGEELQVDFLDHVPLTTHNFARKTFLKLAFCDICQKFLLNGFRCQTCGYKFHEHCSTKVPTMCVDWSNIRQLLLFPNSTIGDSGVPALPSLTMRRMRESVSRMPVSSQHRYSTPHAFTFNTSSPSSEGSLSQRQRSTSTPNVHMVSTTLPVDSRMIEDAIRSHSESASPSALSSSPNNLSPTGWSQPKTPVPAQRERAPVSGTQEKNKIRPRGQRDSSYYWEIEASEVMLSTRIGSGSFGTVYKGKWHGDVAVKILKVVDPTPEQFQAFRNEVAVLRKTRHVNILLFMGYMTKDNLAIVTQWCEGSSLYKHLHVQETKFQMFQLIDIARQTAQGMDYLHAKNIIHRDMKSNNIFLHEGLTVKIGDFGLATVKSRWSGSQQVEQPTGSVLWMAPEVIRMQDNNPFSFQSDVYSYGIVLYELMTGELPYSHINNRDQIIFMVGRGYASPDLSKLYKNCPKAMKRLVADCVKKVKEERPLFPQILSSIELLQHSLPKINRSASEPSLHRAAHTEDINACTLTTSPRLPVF

[33] = biological target: Proto-oncogene tyrosine-protein kinase receptor Ret (Homo sapiens) (UniProt P07949); conditions: Compound concentration 1000.0 nM
Proto-oncogene tyrosine-protein kinase receptor Ret (Homo sapiens), sequence (P07949 whole entry): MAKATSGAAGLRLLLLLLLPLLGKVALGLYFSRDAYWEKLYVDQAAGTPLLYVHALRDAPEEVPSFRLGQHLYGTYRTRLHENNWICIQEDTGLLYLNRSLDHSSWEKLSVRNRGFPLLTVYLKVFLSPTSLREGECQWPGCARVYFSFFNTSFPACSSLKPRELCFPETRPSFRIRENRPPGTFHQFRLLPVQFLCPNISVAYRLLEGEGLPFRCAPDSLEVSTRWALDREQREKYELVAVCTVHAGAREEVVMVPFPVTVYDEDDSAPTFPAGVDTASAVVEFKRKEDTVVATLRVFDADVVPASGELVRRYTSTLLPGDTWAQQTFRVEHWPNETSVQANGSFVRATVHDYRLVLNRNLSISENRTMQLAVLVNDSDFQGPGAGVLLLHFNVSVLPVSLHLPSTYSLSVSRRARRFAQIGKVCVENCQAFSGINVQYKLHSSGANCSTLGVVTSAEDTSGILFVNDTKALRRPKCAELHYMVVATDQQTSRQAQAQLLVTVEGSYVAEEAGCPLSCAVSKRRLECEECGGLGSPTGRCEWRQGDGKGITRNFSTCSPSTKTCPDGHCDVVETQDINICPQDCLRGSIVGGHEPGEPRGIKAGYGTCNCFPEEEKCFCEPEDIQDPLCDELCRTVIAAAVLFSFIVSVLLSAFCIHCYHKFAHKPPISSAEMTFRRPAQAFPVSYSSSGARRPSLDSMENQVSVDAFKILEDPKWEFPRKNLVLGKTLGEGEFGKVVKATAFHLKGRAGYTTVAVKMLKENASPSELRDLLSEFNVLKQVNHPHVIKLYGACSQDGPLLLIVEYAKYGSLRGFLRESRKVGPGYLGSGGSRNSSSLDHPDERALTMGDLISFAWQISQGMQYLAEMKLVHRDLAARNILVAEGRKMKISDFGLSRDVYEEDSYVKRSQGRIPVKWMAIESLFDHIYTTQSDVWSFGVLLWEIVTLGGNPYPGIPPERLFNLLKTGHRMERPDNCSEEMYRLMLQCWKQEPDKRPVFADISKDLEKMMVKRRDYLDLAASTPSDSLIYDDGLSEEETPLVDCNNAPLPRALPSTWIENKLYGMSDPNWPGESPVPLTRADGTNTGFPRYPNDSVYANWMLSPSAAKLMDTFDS

[34] = system: Proto-oncogene tyrosine-protein kinase receptor Ret (Homo sapiens), P07949 [M918T]; conditions: Compound concentration 1000.0 nM
Proto-oncogene tyrosine-protein kinase receptor Ret (Homo sapiens), P07949 [M918T], sequence (P07949 whole entry M918T): as the sequence (P07949 whole entry) above, with M918T counted along it

[35] = biological target: Serine/threonine-protein kinase RIO3 (Homo sapiens) (UniProt O14730); conditions: Compound concentration 1000.0 nM
[36] = biological target: Dual serine/threonine and tyrosine protein kinase (Homo sapiens) (UniProt Q6XUX3); conditions: Compound concentration 1000.0 nM
[37] = biological target: Ribosomal protein S6 kinase alpha-3 (Homo sapiens) (UniProt P51812); conditions: Compound concentration 1000.0 nM
[38] = biological target: Serine/threonine-protein kinase Sgk2 (Homo sapiens) (UniProt Q9HBY8); conditions: Compound concentration 1000.0 nM
[39] = biological target: TRAF2 and NCK-interacting protein kinase (Homo sapiens) (UniProt Q9UKE5); conditions: Compound concentration 1000.0 nM
[40] = biological target: High affinity nerve growth factor receptor (Homo sapiens) (UniProt P04629); conditions: Compound concentration 1000.0 nM
[41] = biological target: Phosphatidylinositol 3-kinase catalytic subunit type 3 (Homo sapiens) (UniProt Q8NEB9); conditions: Compound concentration 1000.0 nM
Phosphatidylinositol 3-kinase catalytic subunit type 3 (Homo sapiens), sequence (Q8NEB9 whole entry): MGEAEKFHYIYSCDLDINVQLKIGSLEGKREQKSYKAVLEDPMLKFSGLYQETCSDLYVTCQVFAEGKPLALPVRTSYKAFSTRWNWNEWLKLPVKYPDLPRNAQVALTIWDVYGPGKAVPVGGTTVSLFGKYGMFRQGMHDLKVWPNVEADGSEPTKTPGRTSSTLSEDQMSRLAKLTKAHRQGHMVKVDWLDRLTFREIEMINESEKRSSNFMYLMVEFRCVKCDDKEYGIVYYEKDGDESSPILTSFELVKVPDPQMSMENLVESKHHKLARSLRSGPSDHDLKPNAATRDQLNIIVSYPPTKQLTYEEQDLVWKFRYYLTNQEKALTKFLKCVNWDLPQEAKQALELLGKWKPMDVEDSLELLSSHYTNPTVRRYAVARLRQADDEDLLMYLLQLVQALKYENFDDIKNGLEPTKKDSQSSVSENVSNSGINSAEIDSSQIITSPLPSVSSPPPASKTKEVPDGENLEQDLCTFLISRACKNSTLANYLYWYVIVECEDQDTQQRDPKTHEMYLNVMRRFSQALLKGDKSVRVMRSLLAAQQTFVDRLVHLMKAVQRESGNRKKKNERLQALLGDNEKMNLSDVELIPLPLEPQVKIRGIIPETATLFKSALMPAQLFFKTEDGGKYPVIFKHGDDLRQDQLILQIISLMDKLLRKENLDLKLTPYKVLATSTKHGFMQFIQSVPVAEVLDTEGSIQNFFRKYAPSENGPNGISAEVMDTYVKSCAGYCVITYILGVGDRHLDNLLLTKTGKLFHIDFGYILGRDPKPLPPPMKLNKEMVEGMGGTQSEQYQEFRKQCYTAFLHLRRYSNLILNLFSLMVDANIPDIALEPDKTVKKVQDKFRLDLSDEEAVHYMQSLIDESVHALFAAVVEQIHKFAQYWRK

[42] = biological target: 5-hydroxytryptamine receptor 5A (Homo sapiens) (UniProt P47898); conditions: Compound concentration 10.0 uM
5-hydroxytryptamine receptor 5A (Homo sapiens), sequence (P47898 whole entry): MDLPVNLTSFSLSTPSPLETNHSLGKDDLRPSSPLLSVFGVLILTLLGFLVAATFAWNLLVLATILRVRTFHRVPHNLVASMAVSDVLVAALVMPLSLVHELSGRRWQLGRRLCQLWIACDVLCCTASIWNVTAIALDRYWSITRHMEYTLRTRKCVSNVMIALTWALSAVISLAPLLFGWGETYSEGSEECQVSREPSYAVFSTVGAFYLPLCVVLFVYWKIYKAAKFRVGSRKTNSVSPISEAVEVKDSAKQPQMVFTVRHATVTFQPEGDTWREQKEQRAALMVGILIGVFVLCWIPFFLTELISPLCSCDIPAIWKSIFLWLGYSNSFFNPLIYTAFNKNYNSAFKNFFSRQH

[43] = biological target: D(1A) dopamine receptor (Homo sapiens) (UniProt P21728); conditions: Compound concentration 10.0 uM
[44] = biological target: D(1B) dopamine receptor (Homo sapiens) (UniProt P21918); conditions: Compound concentration 10.0 uM
[45] = biological target: Histamine H2 receptor (Homo sapiens) (UniProt P25021); conditions: Compound concentration 10.0 uM

CN(C)CC#Cc1ccc(OCCCc2sc(N3CCc4cccc(C(=O)Nc5nc6ccccc6s5)c4C3)nc2C(=O)O)c(F)c1 [A-1155463]
Ki [1]: 794 nM
pKi [1]: 6.1
residual activity [2]: 91%
residual activity [3]: 100%
residual activity [4]: 100%
residual activity [5]: 97%
residual activity [6]: 79%
residual activity [7]: 72%
residual activity [8]: 100%
residual activity [9]: 74%
residual activity [10]: 100%
residual activity [11]: 90%
residual activity [12]: 96%
residual activity [13]: 100%
residual activity [14]: 90%
residual activity [15]: 100%
residual activity [16]: 95%
residual activity [17]: 95%
residual activity [18]: 96%
residual activity [19]: 100%
residual activity [20]: 100%
residual activity [21]: 99%
residual activity [22]: 81%
residual activity [23]: 99%
residual activity [24]: 100%
residual activity [25]: 100%
residual activity [26]: 100%
residual activity [27]: 100%
residual activity [28]: 100%
residual activity [29]: 100%
residual activity [30]: 74%
residual activity [31]: 93%
residual activity [32]: 97%
residual activity [33]: 100%
residual activity [34]: 100%
residual activity [35]: 86%
residual activity [36]: 100%
residual activity [37]: 97%
residual activity [38]: 100%
residual activity [39]: 83%
residual activity [40]: 100%
residual activity [41]: 100%
inhibition [42]: -3.1%
inhibition [43]: 24.6%
inhibition [44]: 40.8%
inhibition [45]: 23.2%
